Values joined by “and” are separate entries in the source; they are usually repeats but may differ in a detail not shown here. Equal entries are not always repeated. Each block holds one molecule with its values, some of them ahead of it. Active and inactive are the calls of the source.
Columns and labels:
[1] = target: T1, Heat shock factor protein 1 (Mus musculus, UniProt P38532); test: inhibition of MG132-induced HSE-luciferase signal, confirmation, cell-based, NIH3T3, luminescence, dose retest (AID 2382); format: functional;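 also: NIH3T3 fibroblasts with HSF1-driven luciferase reporter stressed by proteasome inhibitor MG132; luminescence from HSF1-driven luciferase expression after 8 hours of MG132 stress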
T1 sequence (P38532 whole entry): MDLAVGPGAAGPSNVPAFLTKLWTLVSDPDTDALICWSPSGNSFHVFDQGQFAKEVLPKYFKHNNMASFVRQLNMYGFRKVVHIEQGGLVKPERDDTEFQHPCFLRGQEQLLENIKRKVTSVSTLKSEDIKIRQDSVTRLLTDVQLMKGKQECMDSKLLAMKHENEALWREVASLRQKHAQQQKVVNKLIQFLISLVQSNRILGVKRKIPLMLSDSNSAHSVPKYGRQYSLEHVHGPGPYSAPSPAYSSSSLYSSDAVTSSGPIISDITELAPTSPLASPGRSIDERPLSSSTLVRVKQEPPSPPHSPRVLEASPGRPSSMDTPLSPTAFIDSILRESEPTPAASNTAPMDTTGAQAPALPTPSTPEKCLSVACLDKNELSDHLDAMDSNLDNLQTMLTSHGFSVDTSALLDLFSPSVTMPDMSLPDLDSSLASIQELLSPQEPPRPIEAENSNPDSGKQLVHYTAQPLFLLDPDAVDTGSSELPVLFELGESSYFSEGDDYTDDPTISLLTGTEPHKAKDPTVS

[2] = cytotoxicity toward NIH3T3 fibroblasts, dose response, counter-screen, cell-based, ATP luminescence, mouse fibroblasts (AID 2010); format: functional;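 also: cells exposed to compound for about 90 hours before reading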
[3] = inhibitors of intracellular T. cruzi replication, confirmation, NIH3T3 host cells, beta-gal luminescence (AID 2044); format: functional, cell-based;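 also: intracellular parasites grown in NIH/3T3 mouse fibroblasts as host cells; luminescent beta-galactosidase reporter signal from transgenic T. cruzi replicating inside host cells; inhibitors lower the luminescence signal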
Cytochrome P450 2C19 = Cytochrome P450 2C19 (Homo sapiens, UniProt P33261); test: Cytochrome panel assay with activity outcomes. Panel member name: p450-cyp2c19 Compounds with AC50 equal or less than 10 uM are considered active; format: functional
Cytochrome P450 2C9 = Cytochrome P450 2C9 (Homo sapiens, UniProt P11712)
Cytochrome P450 2D6 = Cytochrome P450 2D6 (Homo sapiens, UniProt P10635);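 also: CYP2D6 member of a cytochrome P450 panel assay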
Streptococcus = test: Group A Streptococcus viability loss, dose response, counter-screen for streptokinase expression inhibitor project, luminescence, BacTiterGlo (AID 1915); format: functional, organism-based;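 also: potency for reduction of bacterial viability or growth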
[4] = tested on: Streptococcus sp. 'group A'; test: growth inhibition of control SK(-) GAS strain, dose response, counter-screen for streptokinase expression inhibitor project, luminescence, kanamycin, BacTiterGlo, confirmation (AID 1900); format: functional, organism-based

Cytochrome P450 2C19, sequence (P33261 whole entry): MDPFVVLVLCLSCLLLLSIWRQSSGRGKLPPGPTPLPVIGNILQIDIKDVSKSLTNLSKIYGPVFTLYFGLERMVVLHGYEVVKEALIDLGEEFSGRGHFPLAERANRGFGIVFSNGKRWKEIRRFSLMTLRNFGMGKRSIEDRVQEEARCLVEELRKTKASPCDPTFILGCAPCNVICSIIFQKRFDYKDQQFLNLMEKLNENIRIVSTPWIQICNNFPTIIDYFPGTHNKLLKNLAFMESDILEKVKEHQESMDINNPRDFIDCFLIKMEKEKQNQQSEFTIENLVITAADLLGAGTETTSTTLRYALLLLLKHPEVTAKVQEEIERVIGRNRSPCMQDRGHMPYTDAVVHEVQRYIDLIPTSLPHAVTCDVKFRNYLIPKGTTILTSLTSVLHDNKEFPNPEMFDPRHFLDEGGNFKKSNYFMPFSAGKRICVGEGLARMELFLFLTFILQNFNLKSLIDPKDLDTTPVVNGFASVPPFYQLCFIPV
Cytochrome P450 2D6, sequence (P10635 whole entry): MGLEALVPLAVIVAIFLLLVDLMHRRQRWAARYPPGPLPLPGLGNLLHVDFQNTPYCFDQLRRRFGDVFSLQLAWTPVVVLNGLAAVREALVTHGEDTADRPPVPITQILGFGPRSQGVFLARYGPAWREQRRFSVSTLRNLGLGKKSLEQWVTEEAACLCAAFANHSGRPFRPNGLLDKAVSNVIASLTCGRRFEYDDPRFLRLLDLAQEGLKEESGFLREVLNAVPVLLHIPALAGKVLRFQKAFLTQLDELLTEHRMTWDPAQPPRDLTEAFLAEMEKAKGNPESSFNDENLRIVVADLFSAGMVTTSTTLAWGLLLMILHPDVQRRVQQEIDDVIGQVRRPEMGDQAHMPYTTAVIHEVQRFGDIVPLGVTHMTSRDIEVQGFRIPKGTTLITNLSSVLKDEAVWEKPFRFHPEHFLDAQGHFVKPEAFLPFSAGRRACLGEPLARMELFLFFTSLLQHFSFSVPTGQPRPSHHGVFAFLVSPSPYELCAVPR
Cytochrome P450 2C9, sequence (P11712 whole entry): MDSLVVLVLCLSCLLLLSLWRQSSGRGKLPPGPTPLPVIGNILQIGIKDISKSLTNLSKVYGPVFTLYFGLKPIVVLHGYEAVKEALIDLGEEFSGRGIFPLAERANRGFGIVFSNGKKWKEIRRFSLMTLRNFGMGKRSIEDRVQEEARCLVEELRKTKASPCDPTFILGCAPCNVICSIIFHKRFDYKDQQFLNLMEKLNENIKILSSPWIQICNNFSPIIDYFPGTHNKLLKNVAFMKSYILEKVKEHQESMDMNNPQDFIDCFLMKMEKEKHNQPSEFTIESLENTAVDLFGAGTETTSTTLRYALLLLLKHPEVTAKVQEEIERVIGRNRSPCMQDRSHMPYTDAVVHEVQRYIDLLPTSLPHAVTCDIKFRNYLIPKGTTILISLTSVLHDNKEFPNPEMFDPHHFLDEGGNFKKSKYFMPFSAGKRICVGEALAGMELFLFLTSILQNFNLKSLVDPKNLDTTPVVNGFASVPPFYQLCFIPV

SMILES: CC(C)(C)OC(=O)N[C@@H](Cc1ccccc1)C(=O)NC[C@H]1CC[C@H](C(=O)N[C@@H](CC(=O)O)C(=O)O)CC1
EC50 [1]: > 195 µM (not active)

SMILES: CCOC(=O)c1cc2c(=O)n3ccccc3nc2n(C(C)C)/c1=N/C(=O)c1c(-c2ccccc2Cl)noc1C
EC50 [2]: > 30 µM (not active)
EC50 [3]: 2400 nM (active)

SMILES: COc1ccc(C(=O)Nc2ccc(S(=O)(=O)N3CCCC3)cc2)c(OC)c1
EC50 [2]: > 60 µM (not active)
EC50 [3]: 11100 nM (active)

SMILES: O=C(CS(=O)(=O)Cc1ccccc1)NCC1CCCO1 (configuration not stated)
EC50 [1]: > 195 µM (not active)

SMILES: O=C1N=C(N2CCOCC2)S/C1=C\C=C/c1ccccc1
AC50 (Cytochrome P450 2C19; read-out: AC50): 35.5 µM (inconclusive)

SMILES: C/C(=N\Nc1nc2ccccc2[nH]1)c1ccc2c(c1)OCCO2
EC50 [2]: > 60 µM (not active)
EC50 [3]: 1890 nM (active)

SMILES: CCCNC(=O)c1c(C)cc(=O)oc1C
AC50 (Cytochrome P450 2C9): 0.112 µM (inconclusive)

SMILES: Cc1ccc(C)c(NC(=O)C2C3CCCC2C3c2ccccc2)c1 (configuration not stated)
AC50 (Cytochrome P450 2C9): 3.16 µM (inconclusive)

SMILES: CC(=O)N1CCC2(CC1)CCN(c1ccc(-c3ccccc3)cc1)CC2
AC50 (Cytochrome P450 2C9): 25.1 µM (inconclusive)

SMILES: CCC(C)c1ccc(NC(=O)C2CC2)cc1 (configuration not stated)
EC50 [1]: > 195 µM (not active)

SMILES: Cc1c2c(n3c(nc4ccccc43)c1C#N)N(CCN(C)C)CC2
EC50 [2]: 20.6 µM (active)
EC50 [3]: 117 nM (active)

SMILES: COC(=O)c1cc(NC(=O)/C=C/c2ccc3c(c2)OCO3)cc(C(=O)OC)c1
AC50 (Cytochrome P450 2C9): 0.126 µM (inconclusive)

SMILES: Cc1ccc(N(Cc2ccco2)C(=O)c2ccc(N3CCCCC3)c([N+](=O)[O-])c2)cc1
EC50 [2]: > 60 µM (not active)
EC50 [3]: 1270 nM (active)

SMILES: Cc1cccc(C)c1OC[C@H](C)N [(S)-MEXILETINE]
AC50 (Cytochrome P450 2D6): 7.94 µM (inconclusive) and 39.8 µM (inconclusive)

SMILES: O=c1c2ccccc2ncn1-c1ccc([N+](=O)[O-])cc1[N+](=O)[O-]
EC50 [2]: > 60 µM (not active)
EC50 [3]: 524 nM (active)

SMILES: O=C(NC(=S)N(CCCCO)C1CCCCC1)c1sc2ccccc2c1Cl
EC50 (Streptococcus): 7.75 µM (active)
AC50 (Cytochrome P450 2D6): 22.4 µM (inconclusive)
EC50 [4]: 891 nM (active)

SMILES: COc1cccc(C(=O)CC(=O)C(=O)Nc2cc(OC)c(OC)c(OC)c2)c1
EC50 [1]: > 195 µM (not active)

SMILES: Cc1ccccc1OCC(=O)OCC(=O)c1ccc(-c2ccccc2)cc1
EC50 [1]: > 195 µM (not active)

SMILES: CC1CC(OCC(O)CN2CCN(Cc3ccccc3)CC2)CC(C)(C)C1 (configuration not stated)
AC50 (Cytochrome P450 2C9): 0.0251 µM (inconclusive)

SMILES: C[N+]12CCC(CC1)[C@@H](OC(=O)C(O)(c1ccccc1)c1ccccc1)C2
AC50 (Cytochrome P450 2D6): 12.6 µM (inconclusive)

SMILES: N=C(N)N/N=C/c1cccc(Cl)c1Cl
EC50 [2]: > 60 µM (not active)
EC50 [3]: 435 nM (active)

SMILES: O=[N+]([O-])c1cccc(/C=N\Nc2ccc3ccccc3n2)c1O
AC50 (Cytochrome P450 2C9): 1 µM (inconclusive)
AC50 (Cytochrome P450 2C19; read-out: AC50): 6.31 µM (inconclusive)

SMILES: O=[N+]([O-])c1nn(-c2ccccc2)[n+]([O-])c1N1CCN(c2ccccc2)CC1
EC50 [2]: > 60 µM (not active)
EC50 [3]: 483 nM (active)

SMILES: Clc1ccc(SCCN2CCNCC2)cc1
EC50 [2]: 9.8 µM (active)
EC50 [3]: 511 nM (active)

SMILES: COc1ccc(CCNCC(O)COc2cccc(C(C)=O)c2)cc1OC (configuration not stated)
EC50 [2]: > 60 µM (not active)
EC50 [3]: 225 nM (active)

SMILES: O=C(c1cnccn1)N1CCC2(CC1)CN(Cc1ccccc1)C2
AC50 (Cytochrome P450 2C9): 31.6 µM (inconclusive)
AC50 (Cytochrome P450 2C19; read-out: AC50): 15.8 µM (inconclusive)

SMILES: Nc1ccccc1Nc1cc(-c2ccccc2)nn1-c1ccccc1
EC50 [2]: > 60 µM (inconclusive)
EC50 [3]: 7720 nM (active)

SMILES: CC(C)C(=O)N1CCN(c2cc(N3CCN(C)CC3)c(F)cc2[N+](=O)[O-])CC1
EC50 [2]: > 60 µM (not active)
EC50 [3]: 625 nM (active)

SMILES: CC(C)c1ccc(NC(=O)c2cc3c(=O)n(C)c4ccccc4c3n2C)cc1
EC50 [2]: 16.2 µM (active)
EC50 [3]: 1120 nM (active)

SMILES: FC(F)(F)c1cccc(NC(S)=NN=C(S)Nc2ccc(Cl)cc2)c1
EC50 (Streptococcus): 5.47 µM (active)
EC50 [4]: 3280 nM (active)

SMILES: CCOc1ccc(-c2cc(C(=O)OC)nc3c2c(=O)n(C)c(=O)n3C)cc1
EC50 (Streptococcus): 4.33 µM (active)
EC50 [4]: 63 nM (active)

SMILES: O=C(Cn1cnc2cc([N+](=O)[O-])ccc2c1=O)NC(=O)NCc1ccccc1
EC50 [2]: > 60 µM (not active)
EC50 [3]: 223 nM (active)

SMILES: CN1C(=O)CC(NNC(=O)c2ccccc2)C1=O (configuration not stated)
AC50 (Cytochrome P450 2C19): inconclusive

SMILES: C=CCN1C(=O)C(Cc2ccc(OC)cc2)S/C1=N/N=C/c1ccco1 (configuration not stated)
EC50 [1]: > 195 µM (not active)

SMILES: COc1ccc(CCNC(=O)c2cc3c(=O)n4ccccc4nc3n(C3CCCCC3)c2=N)cc1
EC50 [2]: > 60 µM (not active)
EC50 [3]: 2170 nM (active)

Now from value to molecule:

EC50 [1]: > 195 µM (not active)
SMILES: COc1ccc(-n2c(-c3ccc(F)cc3)cnc2SCC(=O)NCc2ccco2)cc1

AC50 (Cytochrome P450 2D6): 39.8 µM (inconclusive)
AC50 (Cytochrome P450 2C19): inconclusive
SMILES: Cc1noc(C)c1-c1cncnc1N1CCN(C)CC1

AC50 (Cytochrome P450 2C9): 0.0158 µM (inconclusive)
SMILES: COc1ccccc1CNc1ccnc(-c2ccccc2C(F)(F)F)n1

AC50 (Cytochrome P450 2C9): 20 µM (inconclusive)
SMILES: CSc1nc(C)c(CCOC(=O)c2ccccc2)c(O)n1

AC50 (Cytochrome P450 2C9): 8.91 µM (inconclusive)
SMILES: COC(=O)c1ccccc1NC(=O)C1CCN(C(=O)c2ccc(OC)cc2)CC1

AC50 (Cytochrome P450 2C19; read-out: AC50): 39.8 µM (inconclusive)
SMILES: CCOC(=O)N1CCC(NC(=O)CS(=O)(=O)Cc2nc(-c3cccc(OC)c3)oc2C)CC1

EC50 [1]: > 195 µM (not active)
SMILES: Cc1ccc(/C=C/C(=O)Nc2ccc(O)c3c(=O)cc(-c4ccccc4Cl)oc23)cc1

AC50 (Cytochrome P450 2D6): 0.891 µM (inconclusive)
SMILES: Cc1nn(-c2ccccc2)c2c1C(=O)N(Cc1ccccc1)C(=O)C(C)(C)C2

AC50 (Cytochrome P450 2C9): 22.4 µM (inconclusive)
SMILES: Cc1ccnc(NCn2nnc3ccccc32)c1

EC50 [1]: > 195 µM (not active)
SMILES: Cc1ccc(OCC(O)CN2C(=O)NC(C)(C)C2=O)cc1C (configuration not stated)

AC50 (Cytochrome P450 2D6): 5.01 µM (inconclusive)
AC50 (Cytochrome P450 2C19; read-out: AC50): 3.16 µM (inconclusive)
SMILES: C=CC[C@@H]1C=C[C@H](O/N=C2\c3cc(OC)ccc3O[C@H](c3cccc(OC)c3)[C@H]2O)[C@H](CO)O1

AC50 (Cytochrome P450 2D6): 28.2 µM (inconclusive)
SMILES: CCC(C(=O)NC(C)(C)C)N(C(=O)Cn1nnc(-c2cccs2)n1)c1cnc2ccccc2c1 (configuration not stated)

EC50 [1]: > 195 µM (not active)
SMILES: CN(CC(=O)NCc1cccnc1)S(=O)(=O)c1ccc2c(c1)c(=O)n(C)c(=O)n2C

AC50 (Cytochrome P450 2C9): 20 µM (inconclusive)
SMILES: Cc1cc(C)cc(NC(=O)N2CCCC2C(=O)Nc2ccc(-n3cnnn3)c(C)c2)c1 (configuration not stated)

EC50 [1]: > 195 µM (not active)
SMILES: CCN(c1ccccc1)S(=O)(=O)c1ccc(Cl)c(C(=O)N(CC2CCCO2)C2CCS(=O)(=O)C2)c1 (configuration not stated)

EC50 [1]: > 195 µM (not active)
SMILES: CCCCN(C(=O)COc1ccc(C)cc1OC)c1c(N)n(CCC)c(=O)[nH]c1=O

EC50 [1]: > 195 µM (not active)
SMILES: CC1(C)Cc2nc3[nH]c(=S)n(-c4ccccc4)c(=O)c3cc2CO1

AC50 (Cytochrome P450 2D6): 15.8 µM (inconclusive)
SMILES: Cc1cc(N2CCOCC2)nc(SCc2ccc(Cl)cc2Cl)n1

AC50 (Cytochrome P450 2C9): 14.1 µM (inconclusive)
AC50 (Cytochrome P450 2C19; read-out: AC50): 1.78 µM (inconclusive)
SMILES: Cc1c(Cl)c([N+](=O)[O-])nn1CC(=O)Nc1c(C)n(C)n(-c2ccccc2)c1=O

EC50 [1]: > 195 µM (not active)
SMILES: Cc1cc(C)c2nc(O)c(C(c3nnnn3CC3CCCO3)N3CCC(C)CC3)cc2c1 (configuration not stated)

AC50 (Cytochrome P450 2C9): 20 µM (inconclusive)
SMILES: Cc1cc(C(F)(F)F)n2nc(-c3cnn(C)c3C(F)(F)F)c(Cl)c2n1

EC50 [1]: > 195 µM (not active)
SMILES: Cc1nn2c(=O)c(Cl)c(C)[nH]c2c1-c1ccccc1

AC50 (Cytochrome P450 2D6): 31.6 µM (inconclusive)
SMILES: COc1cccc(-c2ccc3ncnc(NCc4cnc(C)cn4)c3c2)c1
